Values joined by “and” are separate entries in the source; they are usually repeats but may differ in a detail not shown here. Equal entries are not always repeated. Inconclusive results and toxic doses are left out.
System: P388 leukemia ip, CD2F1 mice, survival T/C
Test: NCI In Vivo Anticancer Drug Screen. Data for tumor model P388 Leukemia (intraperitoneal) in CD2F1 (CDF1) mice
Conditions: endpoint: median survival time, higher = longer survival
Method in brief: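 Mice carrying the transplanted tumor received test compound or vehicle. Survival was recorded in each group, and the value is the treated-group measurement divided by that of the vehicle-treated control group.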

[1] = dose: 25.0 mg/kg/injection, schedule: Q01DX009 (ip), vehicle: saline with Tween-80
[2] = dose: 50.0 mg/kg/injection, schedule: Q01DX009 (ip), vehicle: saline with Tween-80
[3] = dose: 100.0 mg/kg/injection, schedule: Q01DX009 (ip), vehicle: saline with Tween-80
[4] = dose: 200.0 mg/kg/injection, schedule: Q01DX009 (ip), vehicle: saline with Tween-80
[5] = dose: 25.0 mg/kg/injection, schedule: Q01DX009 (ip), vehicle: other
[6] = dose: 50.0 mg/kg/injection, schedule: Q01DX009 (ip), vehicle: other
[7] = dose: 100.0 mg/kg/injection, schedule: Q01DX009 (ip), vehicle: other
[8] = dose: 200.0 mg/kg/injection, schedule: Q01DX009 (ip), vehicle: other
[9] = dose: 400.0 mg/kg/injection, schedule: Q01DX009 (ip), vehicle: other

## COC(=O)C[C@](O)(CCCC(C)(C)O)C(=O)O[C@@H]1C(OC)=C[C@]23CCCN2CCc2cc4c(cc2[C@H]13)OCO4
dose: 0.06 mg/kg/injection, schedule: Q01DX005 (iv), vehicle: clinical formulation
  T/C: 106 % of control
dose: 0.06 mg/kg/injection, schedule: Q01DX005 (iv), vehicle: saline
  T/C: 104 % of control
dose: 0.12 mg/kg/injection, schedule: Q01DX005 (iv), vehicle: clinical formulation
  T/C: 112 % of control
dose: 0.12 mg/kg/injection, schedule: Q01DX005 (iv), vehicle: saline
  T/C: 102 % of control
dose: 0.12 mg/kg/injection, schedule: Q01DX009 (ip), vehicle: clinical formulation
  T/C: 155 % of control
dose: 0.12 mg/kg/injection, schedule: Q01DX009 (ip), vehicle: saline
  T/C: 152 % of control
dose: 0.25 mg/kg/injection, schedule: Q01DX005 (iv), vehicle: clinical formulation
  T/C: 121 % of control
dose: 0.25 mg/kg/injection, schedule: Q01DX005 (iv), vehicle: saline
  T/C: 102 % of control
dose: 0.25 mg/kg/injection, schedule: Q01DX009 (ip), vehicle: clinical formulation
  T/C: 166 % of control
dose: 0.25 mg/kg/injection, schedule: Q01DX009 (ip), vehicle: saline
  T/C: 162 % of control
dose: 0.5 mg/kg/injection, schedule: Q01DX005 (iv), vehicle: clinical formulation
  T/C: 160 % of control
dose: 0.5 mg/kg/injection, schedule: Q01DX009 (ip), vehicle: clinical formulation
  T/C: 199 % of control
dose: 0.5 mg/kg/injection, schedule: Q01DX009 (ip), vehicle: saline
  T/C: 185 % of control
dose: 0.58 mg/kg/injection, schedule: Q01DX009 (ip), vehicle: acid diluted with saline
  T/C: 194 % of control
dose: 0.75 mg/kg/injection, schedule: Q01DX009 (ip), vehicle: acid diluted with saline
  T/C: 173 % of control and 180 % of control
dose: 1.0 mg/kg/injection, schedule: Q01DX005 (iv), vehicle: clinical formulation
  T/C: 194 % of control
dose: 1.0 mg/kg/injection, schedule: Q01DX005 (iv), vehicle: saline
  T/C: 168 % of control
dose: 1.0 mg/kg/injection, schedule: Q01DX009 (ip), vehicle: clinical formulation
  T/C: 252 % of control
dose: 1.65 mg/kg/injection, schedule: Q01DX009 (ip), vehicle: acid diluted with saline
  T/C: 211 % of control and 229 % of control
dose: 1.75 mg/kg/injection, schedule: Q01DX009 (ip), vehicle: acid diluted with saline
  T/C: 229 % of control and 234 % of control and 93 % of control
dose: 1.8 mg/kg/injection, schedule: Q04DX003 (ip), vehicle: saline + alcohol
  T/C: 159 % of control
dose: 1.8 mg/kg/injection, schedule: Q04DX003 (ip), vehicle: saline
  T/C: 152 % of control
dose: 2.0 mg/kg/injection, schedule: Q01DX005 (iv), vehicle: saline
  T/C: 203 % of control
dose: 2.25 mg/kg/injection, schedule: Q01DX009 (ip), vehicle: acid diluted with saline
  T/C: 223 % of control (2×) and 93 % of control
dose: 2.5 mg/kg/injection, schedule: Q01DX009 (ip), vehicle: acid diluted with saline
  T/C: 106 % of control and 95 % of control
dose: 3.0 mg/kg/injection, schedule: Q01DX009 (ip), vehicle: acid diluted with saline
  T/C: 66 % of control
dose: 3.0 mg/kg/injection, schedule: Q04DX003 (ip), vehicle: saline + alcohol
  T/C: 99 % of control
dose: 3.33 mg/kg/injection, schedule: Q04DX003 (ip), vehicle: saline
  T/C: 103 % of control

## CCC(c1ccc(OC)cc1)C(NCC(=O)N/N=C/c1c[nH]c2ccccc12)c1ccc(OC)cc1 (configuration not stated)
dose: 100.0 mg/kg/injection, schedule: Q01DX001 (ip), vehicle: saline with Tween-80
  T/C: 94 % of control
dose: 200.0 mg/kg/injection, schedule: Q01DX001 (ip), vehicle: saline with Tween-80
  T/C: 87 % of control

## Cc1ccc(O)c(CN2CCN(Cc3cc(C)ccc3O)CC2)c1
dose: 60.0 mg/kg/injection, schedule: Q01DX005 (ip), vehicle: Klucel (hydroxypropylcellulose) (HPC)
  T/C: 86 % of control
dose: 120.0 mg/kg/injection, schedule: Q01DX005 (ip), vehicle: Klucel (hydroxypropylcellulose) (HPC)
  T/C: 91 % of control
dose: 240.0 mg/kg/injection, schedule: Q01DX005 (ip), vehicle: Klucel (hydroxypropylcellulose) (HPC)
  T/C: 88 % of control

## C=C1C(=O)OC2CC1C(O)C/C(C)=C/CC/C(C)=C/C(O)CC2C (configuration not stated)
dose: 6.25 mg/kg/injection, schedule: Q01DX009 (ip), vehicle: Klucel (hydroxypropylcellulose) (HPC)
  T/C: 104 % of control
dose: 12.5 mg/kg/injection, schedule: Q01DX009 (ip), vehicle: Klucel (hydroxypropylcellulose) (HPC)
  T/C: 110 % of control
dose: 25.0 mg/kg/injection, schedule: Q01DX009 (ip), vehicle: Klucel (hydroxypropylcellulose) (HPC)
  T/C: 104 % of control and 112 % of control

## CSC(SC)=C(C#N)c1nc(SC)c(C#N)c(SC)n1
dose: 50.0 mg/kg/injection, schedule: Q04DX003 (ip), vehicle: saline
  T/C: 102 % of control
dose: 100.0 mg/kg/injection, schedule: Q04DX003 (ip), vehicle: saline
  T/C: 112 % of control

## O=[N+]([O-])c1cc(NC(=S)SCc2ccc(Cl)cc2)ccc1Cl
[1]
  T/C: 106 % of control
dose: 25.0 mg/kg/injection, schedule: Q01DX009 (ip), vehicle: saline
  T/C: 105 % of control
[2]
  T/C: 100 % of control
dose: 50.0 mg/kg/injection, schedule: Q01DX009 (ip), vehicle: saline
  T/C: 100 % of control
dose: 50.0 mg/kg/injection, schedule: Q01DX009 (ip), vehicle: suspension in saline
  T/C: 109 % of control
[3]
  T/C: 106 % of control
dose: 100.0 mg/kg/injection, schedule: Q01DX009 (ip), vehicle: saline
  T/C: 107 % of control
dose: 100.0 mg/kg/injection, schedule: Q01DX009 (ip), vehicle: suspension in saline
  T/C: 108 % of control
[4]
  T/C: 106 % of control
dose: 200.0 mg/kg/injection, schedule: Q01DX009 (ip), vehicle: saline
  T/C: 110 % of control
dose: 200.0 mg/kg/injection, schedule: Q01DX009 (ip), vehicle: suspension in saline
  T/C: 121 % of control

## CCOC(=O)C(CN1C(=O)c2ccccc2C1=O)(NC(C)=O)C(=O)OCC
[5]
  T/C: 103 % of control
[6]
  T/C: 106 % of control
[7]
  T/C: 103 % of control
[8]
  T/C: 114 % of control
[9]
  T/C: 120 % of control

## C1CC[N+](=c2nc(N3CCOCC3)ss2)C1
dose: 50.0 mg/kg/injection, schedule: Q04DX002 (ip), vehicle: saline with Tween-80
  T/C: 100 % of control
dose: 100.0 mg/kg/injection, schedule: Q04DX002 (ip), vehicle: saline with Tween-80
  T/C: 99 % of control
dose: 200.0 mg/kg/injection, schedule: Q04DX002 (ip), vehicle: saline with Tween-80
  T/C: 99 % of control

## Cc1c(Cl)c2ccc(N(C)C)cc2[nH]c1=O
dose: 50.0 mg/kg/injection, schedule: Q01DX009 (ip), vehicle: acid diluted with saline
  T/C: 95 % of control
dose: 100.0 mg/kg/injection, schedule: Q01DX009 (ip), vehicle: acid diluted with saline
  T/C: 93 % of control
dose: 200.0 mg/kg/injection, schedule: Q01DX009 (ip), vehicle: acid diluted with saline
  T/C: 89 % of control

## O=C(O)c1c[nH]c2ccc([N+](=O)[O-])cc2c1=O
dose: 0.63 mg/kg/injection, schedule: Q01DX009 (ip), vehicle: Klucel (hydroxypropylcellulose) (HPC)
  T/C: 110 % of control
dose: 1.25 mg/kg/injection, schedule: Q01DX009 (ip), vehicle: Klucel (hydroxypropylcellulose) (HPC)
  T/C: 94 % of control
dose: 2.5 mg/kg/injection, schedule: Q01DX009 (ip), vehicle: Klucel (hydroxypropylcellulose) (HPC)
  T/C: 101 % of control
dose: 5.0 mg/kg/injection, schedule: Q01DX009 (ip), vehicle: Klucel (hydroxypropylcellulose) (HPC)
  T/C: 104 % of control
dose: 10.0 mg/kg/injection, schedule: Q01DX009 (ip), vehicle: Klucel (hydroxypropylcellulose) (HPC)
  T/C: 100 % of control
dose: 90.0 mg/kg/injection, schedule: Q01DX009 (ip), vehicle: Klucel (hydroxypropylcellulose) (HPC)
  T/C: 86 % of control

## COC(=O)C1C2CCC1C2 (configuration not stated)
[5]
  T/C: 97 % of control
[6]
  T/C: 110 % of control
[7]
  T/C: 105 % of control
[8]
  T/C: 107 % of control
[9]
  T/C: 110 % of control

## Oc1ccc(N=Cc2ccccn2)cc1
[1]
  T/C: 94 % of control
[2]
  T/C: 105 % of control and 88 % of control
[3]
  T/C: 107 % of control and 88 % of control
[4]
  T/C: 103 % of control

## CCCCNC(=O)N1C2C3CCC(C)(OC3(C)C)C21 (configuration not stated)
dose: 50.0 mg/kg/injection, schedule: Q01DX005 (ip), vehicle: saline
  T/C: 101 % of control
dose: 100.0 mg/kg/injection, schedule: Q01DX005 (ip), vehicle: saline
  T/C: 101 % of control
dose: 200.0 mg/kg/injection, schedule: Q01DX005 (ip), vehicle: saline
  T/C: 102 % of control

## CSCCC([NH-])C(=O)O.CSCCC([NH-])C(=O)O.[Ni+2] (configuration not stated)
dose: 0.79 mg/kg/injection, schedule: Q01DX009 (ip), vehicle: saline
  T/C: 92 % of control
dose: 1.56 mg/kg/injection, schedule: Q01DX009 (ip), vehicle: saline
  T/C: 96 % of control
dose: 3.12 mg/kg/injection, schedule: Q01DX009 (ip), vehicle: saline
  T/C: 97 % of control
dose: 12.5 mg/kg/injection, schedule: Q01DX009 (ip), vehicle: saline
  T/C: 94 % of control

From PubChem BioAssay AID330 (DTP/NCI, 2004)
